The values that follow come from patent US12077503B2, “Substituted cyclic amides and their use as herbicides” (FMC CORPORATION, priority 2015, dated 2024).

What all share (experiment): Test A preemergence
Format in all cases: in vivo

The subject of one test is Kochia (Kochia scoparia). The following applies: Bassia scoparia, pre-emergence, 240 h; for pest or weed control at 125 g/ha: 125 g ai/ha; for pest or weed control at 500 g/ha: 500 g ai/ha. An outline of the steps:
(§1)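 Treatment is preemergence as a directed soil spray after planting, or postemergence at the one- to two-leaf stage, with test chemical in a non-phytotoxic solvent mixture plus surfactant. Plants stay in the greenhouse about 10 d before visual injury scoring on a 0 to 100 scale versus untreated controls.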

Test [1] relates to barnyardgrass (Echinochloa crus-galli). Particulars: Echinochloa crus-galli, pre-emergence, 240 h; for pest or weed control at 125 g/ha: 125 g ai/ha; for pest or weed control at 500 g/ha: 500 g ai/ha. Put shortly: as §1
Test [2] has as its system giant foxtail (Setaria faberii). The following applies: Setaria faberi, pre-emergence, 240 h; for pest or weed control at 125 g/ha: 125 g ai/ha; for pest or weed control at 500 g/ha: 500 g ai/ha. An outline of the steps: as §1
In test [3] the test system is ragweed (common ragweed, Ambrosia elatior). The following applies: Ambrosia artemisiifolia, pre-emergence, 240 h; for pest or weed control at 125 g/ha: 125 g ai/ha; for pest or weed control at 500 g/ha: 500 g ai/ha. An outline of the steps: as §1
Test [4] concerns ryegrass, Italian (Italian ryegrass, Lolium multiflorum). Particulars: Lolium multiflorum, pre-emergence, 240 h; for pest or weed control at 125 g/ha: 125 g ai/ha; for pest or weed control at 500 g/ha: 500 g ai/ha. An outline of the steps: as §1
The mark [5] stands for this setting: preemergence, 0 to 100 scale where 0 is no effect and 100 is complete control, read-out: Kochia plant response rating.
Where [6] appears, read: Preemergence, visual injury vs untreated controls after approximately 10 d, read-out: Kochia plant response rating (0 to 100 scale where 0 is no effect and 100 is complete control).
Where [7] appears, read: preemergence, 0 to 100 scale where 0 is no effect and 100 is complete control, read-out: Barnyardgrass plant response rating.
Where [8] appears, read: Preemergence, visual injury vs untreated controls after approximately 10 d, read-out: Barnyardgrass plant response rating (0 to 100 scale where 0 is no effect and 100 is complete control).
The mark [9] stands for this setting: preemergence, 0 to 100 scale where 0 is no effect and 100 is complete control, read-out: Foxtail, Giant plant response rating.
[10] abbreviates: Preemergence, visual injury vs untreated controls after approximately 10 d, read-out: Foxtail, Giant plant response rating (0 to 100 scale where 0 is no effect and 100 is complete control).
Setting [11] is: preemergence, 0 to 100 scale where 0 is no effect and 100 is complete control, read-out: Ragweed plant response rating.
Where [12] appears, read: Preemergence, visual injury vs untreated controls after approximately 10 d, read-out: Ragweed plant response rating (0 to 100 scale where 0 is no effect and 100 is complete control).
The mark [13] stands for this setting: preemergence, 0 to 100 scale where 0 is no effect and 100 is complete control, read-out: Ryegrass, Italian plant response rating.
[14] abbreviates: Preemergence, visual injury vs untreated controls after approximately 10 d, read-out: Ryegrass, Italian plant response rating (0 to 100 scale where 0 is no effect and 100 is complete control).
Setting [15] is: preemergence, visual injury rating about 10 d after treatment, 0 to 100 scale (0 no effect, 100 complete control), read-out: Barnyardgrass plant response rating.
[16] abbreviates: preemergence, visual injury rating, 0 to 100 scale where 0 is no effect and 100 is complete control, approximately 10 d, read-out: Kochia plant response rating.
The mark [17] stands for this setting: preemergence, visual injury rating, 0 to 100 scale where 0 is no effect and 100 is complete control, approximately 10 d, read-out: Barnyardgrass plant response rating.
Where [18] appears, read: preemergence, visual injury rating, 0 to 100 scale where 0 is no effect and 100 is complete control, approximately 10 d, read-out: Foxtail, Giant plant response rating.
[19] abbreviates: preemergence, visual injury rating, 0 to 100 scale where 0 is no effect and 100 is complete control, approximately 10 d, read-out: Ragweed plant response rating.
The mark [20] stands for this setting: preemergence, visual injury rating, 0 to 100 scale where 0 is no effect and 100 is complete control, approximately 10 d, read-out: Ryegrass, Italian plant response rating.
The mark [21] stands for this setting: preemergence, 0 to 100 scale where 0 is no effect and 100 is complete control, approx. 10 d, read-out: Kochia plant response rating.
Where [22] appears, read: preemergence, 0 to 100 scale where 0 is no effect and 100 is complete control, approx. 10 d, read-out: Barnyardgrass plant response rating.
[23] abbreviates: preemergence, 0 to 100 scale where 0 is no effect and 100 is complete control, approx. 10 d, read-out: Foxtail, Giant plant response rating.
The mark [24] stands for this setting: preemergence, 0 to 100 scale where 0 is no effect and 100 is complete control, approx. 10 d, read-out: Ragweed plant response rating.
The mark [25] stands for this setting: preemergence, 0 to 100 scale where 0 is no effect and 100 is complete control, approx. 10 d, read-out: Ryegrass, Italian plant response rating.

Like-named read-outs stand apart in the source and are kept apart here.

Consider `COc1ccc(CN2CC[C@H](c3ccc(F)cc3)[C@@H](C(=O)Nc3cccc(F)c3F)C2=O)cc1` [Compound 919], for which the pest or weed control at 125 g/ha (with Kochia (Kochia scoparia) (setting [5]); in test [1] (setting [7]); in test [2] (setting [9]); in test [3] (setting [11]); in test [4] (setting [13])) was 0% in each case. The pest or weed control at 500 g/ha (with Kochia (Kochia scoparia) (setting [6]); in test [1] (setting [8]); in test [2] (setting [10]); in test [3] (setting [12]); in test [4] (setting [14])) was 0% in each case.
Regarding `CCOc1ccc([C@H]2CN(C)C(=O)[C@@H]2C(=O)Nc2ccccc2F)cc1` [Compound 903], the pest or weed control at 125 g/ha in the test with Kochia (Kochia scoparia) (setting [5]) was found to be 20%; in test [1] (setting [7]), 90%; in test [2] (setting [9]), 90%; in test [3] (setting [11]) it was 0%; in test [4] (setting [13]), 0%. Further, the pest or weed control at 500 g/ha with Kochia (Kochia scoparia) (setting [6]) is 90%; in test [1] (setting [8]) it was 90%; in test [2] (setting [10]) it was 90%; in test [3] (setting [12]), 0%; in test [4] (setting [14]) it was 0%.
Turning to `Cc1cc([C@H]2CN(C)C(=O)[C@@H]2C(=O)Nc2cccc(F)c2F)ccc1Cl` [Compound 929], the pest or weed control at 125 g/ha in the test on Kochia (Kochia scoparia) (setting [5]) stood at 70%; in test [1] (setting [7]), 90%; in test [2] (setting [9]), 90%. Besides, the pest or weed control at 500 g/ha in the test on Kochia (Kochia scoparia) (preemergence, visual injury rating about 10 d after treatment, 0 to 100 scale (0 no effect, 100 complete control), read-out: Kochia plant response rating) stood at 90%; in test [1] (setting [15]), 90%; in test [2] (preemergence, visual injury rating about 10 d after treatment, 0 to 100 scale (0 no effect, 100 complete control), read-out: Foxtail, Giant plant response rating) it was 90%; in test [3] (preemergence, visual injury rating about 10 d after treatment, 0 to 100 scale (0 no effect, 100 complete control), read-out: Ragweed plant response rating), 30%; in test [4] (preemergence, visual injury rating about 10 d after treatment, 0 to 100 scale (0 no effect, 100 complete control), read-out: Ryegrass, Italian plant response rating), 80%.
In the case of `Cc1c(F)cccc1NC(=O)[C@H]1C(=O)N(C)C[C@@H]1c1ccc(F)cc1` [Compound 1235], the pest or weed control at 125 g/ha came out at 60% in the test on Kochia (Kochia scoparia) (setting [16]); 100% in test [1] (setting [17]); 100% in test [2] (setting [18]); 70% in test [3] (setting [19]); 50% in test [4] (setting [20]). In addition, the pest or weed control at 500 g/ha is 80% in the test with Kochia (Kochia scoparia) (setting [5]); 100% in test [1] (setting [7]); 100% in test [2] (setting [9]); 90% in test [3] (setting [11]); 60% in test [4] (setting [13]).
Turning to `CN1CC[C@H](c2cccc(C(F)(F)F)c2)[C@@H](C(=O)Nc2cccc(F)c2Cl)C1=O` [Compound 1158], the pest or weed control at 125 g/ha with Kochia (Kochia scoparia) (setting [21]) came to 30%; in test [1] (setting [22]) it was 90%; in test [2] (setting [23]), 100%; in test [3] (setting [24]) it was 0%; in test [4] (setting [25]), 60%. The pest or weed control at 500 g/ha turned out to be 30% in the test on Kochia (Kochia scoparia) (setting [5]); 100% in test [1] (setting [7]); 100% in test [2] (setting [9]); 0% in test [3] (setting [11]); 70% in test [4] (setting [13]).
Take `COc1ccc([C@H]2CN(C)C(=O)[C@@H]2C(=O)Nc2cccc(F)c2F)c(OC)c1` [Compound 1209]: the pest or weed control at 125 g/ha in the test with Kochia (Kochia scoparia) (setting [16]) was 60%; in test [1] (setting [17]) it was 90%; in test [2] (setting [18]) it was 90%; in test [3] (setting [19]) it was 60%; in test [4] (setting [20]), 0%. Besides, the pest or weed control at 500 g/ha in the test on Kochia (Kochia scoparia) (setting [5]) worked out at 90%; in test [1] (setting [7]), 90%; in test [2] (setting [9]) it was 100%; in test [3] (setting [11]) it was 90%; in test [4] (setting [13]), 50%.
For the molecule `Cc1c(F)ccc([C@H]2CN(C)C(=O)[C@@H]2C(=O)Nc2ccccc2S(C)(=O)=O)c1F` [Compound 842], the pest or weed control at 125 g/ha in the test with Kochia (Kochia scoparia) (setting [5]) stood at 80%; in test [1] (setting [7]), 90%; in test [2] (setting [9]), 90%; in test [3] (setting [11]) it was 70%; in test [4] (setting [13]), 30%. In addition, the pest or weed control at 500 g/ha in the test with Kochia (Kochia scoparia) (setting [6]) is 80%; in test [1] (setting [8]) it was 90%; in test [2] (setting [10]) it was 100%; in test [3] (setting [12]), 80%; in test [4] (setting [14]) it was 60%.
In the case of `O=C1NC[C@H](c2csc(C(F)F)c2)[C@H]1C(=O)Nc1cccc(F)c1F` [Compound 1119], the pest or weed control at 125 g/ha stood at 70% in the test on Kochia (Kochia scoparia) (setting [21]); 90% in test [1] (setting [22]); 50% in test [2] (setting [23]); 70% in test [3] (setting [24]); 20% in test [4] (setting [25]). In addition, the pest or weed control at 500 g/ha worked out at 80% in the test on Kochia (Kochia scoparia) (setting [5]); 90% in test [1] (setting [15]); 80% in test [2] (setting [9]); 70% in test [3] (setting [11]); 30% in test [4] (setting [13]).
As for `COc1cc(C(F)(F)F)ccc1[C@H]1CN(C)C(=O)[C@@H]1C(=O)Nc1ccccc1F` [Compound 858], the pest or weed control at 125 g/ha in the test on Kochia (Kochia scoparia) (setting [5]) turned out to be 60%; in test [1] (setting [7]) it was 90%; in test [2] (setting [9]), 90%; in test [3] (setting [11]), 0%; in test [4] (setting [13]), 30%. Also, the pest or weed control at 500 g/ha is 70% in the test with Kochia (Kochia scoparia) (setting [6]); 90% in test [1] (setting [8]); 90% in test [2] (setting [10]); 30% in test [3] (setting [12]); 70% in test [4] (setting [14]).
